Results as given in patent US20170166879A1, “NOVEL (R)-HYDROXYNITRILE LYASE” (PUBLIC UNIVERSITY CORPORATION TOYAMA PREFECTURAL UNIVERSITY, priority 2014, published 2017).

What was measured:
R-ChHNL [1] = molecular target: T1, R-ChHNL (Chamberlinius hualienensis, UniProt A0A0H5BR52); assay: Search of inhibitor of R-ChHNL activity (remaining activity); assay type: biochemical
R-ChHNL [2] = molecular target: T1, R-ChHNL; assay: Dynamic (kinetic) analysis, aldehyde substrates, Hanes-Woolf plot
R-ChHNL [3] = molecular target: T1, R-ChHNL; assay: Substrate identification by cyanohydrin synthetic reaction; assay type: biochemical; conditions: 50 mM carbonyl compound, 100 mM KCN, pH 4.2, 25° C., 5 minutes (aliphatic: 2 hours)
[4] = Decomposition reaction from racemic mandelonitrile to benzaldehyde, absorbance at 280 nm; assay type: biochemical, Chamberlinius hualienensis; conditions: purified enzyme; decomposition: 2 mM racemic mandelonitrile, pH 5.0-5.5, 22° C.
[5] = assay type: biochemical, Chamberlinius hualienensis
Method: The stability to temperature was measured by performing the reaction in a reaction mixture of pH 7.0 at the temperature range of 0 to 70° C. for 1 hour. In addition, the reaction was similarly performed except that the reaction temperature was adjusted to 20° C. and pH was changed in the range of 3 to 11. In the reaction, citrate-phosphate buffer was used when pH was 3 to 8, and glycine-NaOH buffer was used when pH was 8 to 11. The enzyme activity was measured according to the method described in Dadashipour et al. (2011). […] In addition, the relation between the reaction temperature and the remaining activity and the relation between the reaction pH and the remaining activity of both R-ChHNLs are respectively shown in FIG. 7(A) and FIG. 7(B).

[6] = tested on: S-HNL derived from Baliospermum; conditions: cited from earlier work
[7] = concentration not given (1 mM or 0.1 mM), pH 7.0, 20° C., 60 minutes
[8] = 10 mM, pH 7.0, 20° C., 60 minutes
[9] = aldehydes other than benzaldehyde, condition similar to the above-described condition
[10] = aldehydes other than benzaldehyde, relative to benzaldehyde at pH 5.2 and 22° C.

Question: With `[Cl][Cr]([Cl])[Cl]` [CrCl3] as the molecule, how does the Remaining activity (R-ChHNL [1]; [7]) read?
Answer: Its Remaining activity is 88%.

Question: Which Remaining activity (R-ChHNL [1]; [7]) does the source give for `[Cl][Cd][Cl]` [CdCl2] here?
Answer: The Remaining activity was 99%.

Question: With `O=S(=O)([O-])[O-].[Mn+2]` [MnSO4] as the molecule, how does the Remaining activity (R-ChHNL [1]; [7]) read?
Answer: The Remaining activity was 106%.

Question: Which Remaining activity (R-ChHNL [1]; [8]) does the source give for `O=C(O)CN(CCN(CC(=O)O)CC(=O)O)CC(=O)O` [EDTA] here?
Answer: The Remaining activity was 100%.

Question: For `COc1ccc(C=O)cc1` [4-methoxybenzaldehyde], which Km (R-ChHNL [2]; [9]) is on record?
Answer: Its Km is 6.7 mM.

Question: What about the Vmax (R-ChHNL [2]; [9]) of the same molecule?
Answer: Its Vmax is 7482 µmol/min/mg.

Question: And the kcat (R-ChHNL [2]; [9])?
Answer: The kcat was 3099 s⁻¹.

Question: What about the “max S.A. (specific activity)” value (R-ChHNL [2]; [9]) of the same molecule?
Answer: The value was 6849 U/mg.

Question: What about the “relative S.A.” value (R-ChHNL [2]; [10]) of the same molecule?
Answer: The value was 92.1.

Question: For `O=C1NC(=O)C(c2ccccc2)(c2ccccc2)N1` [diphenylhydantoin], which Remaining activity (R-ChHNL [1]; [7]) is on record?
Answer: Its Remaining activity is 100%.

Question: Which Remaining activity (R-ChHNL [1]; 1 mM, pH 7.0, 20° C., 60 minutes) does the source give for `O=S(=O)(F)Cc1ccccc1` [phenylmethylsulfonyl fluoride (PMSF), phenylmethylsulfonyl fluoride] here?
Answer: The Remaining activity was 91%.

Question: What about the Remaining activity (R-ChHNL [1]; [8]) of the same molecule?
Answer: The Remaining activity was 60%.

Question: Which “max S.A. (specific activity)” value (R-ChHNL [2]; pH5.2, 22° C.) does the source give for `O=Cc1ccccc1` [benzaldehyde] here?
Answer: The value was 7433 U/mg.

Question: What about the “relative S.A.” value (R-ChHNL [2]; pH5.2, 22° C., the reference case (100)) of the same molecule?
Answer: Its value is 100.

Question: And the “max S.A. (specific activity)” value (R-ChHNL [2]; pH5.8, 35° C.)?
Answer: Its value is 17141 U/mg.

Question: And the “relative S.A.” value (R-ChHNL [2]; pH5.8, 35° C., relative to benzaldehyde at pH 5.2 and 22° C.)?
Answer: The value was 230.6.

Question: And the “activity of R-ChHNL on the carbonyl compound as substrate” value (R-ChHNL [3])?
Answer: Its value is “recognizes”.

Question: With `O=C(O)c1cc(SSc2ccc([N+](=O)[O-])c(C(=O)O)c2)ccc1[N+](=O)[O-]` [dithionitrobenzoic acid] as the molecule, how does the Remaining activity (R-ChHNL [1]; [7]) read?
Answer: The Remaining activity was 97%.

Question: What does the source list for “R-ChHNL: (R)-hydroxynitrile lyase purified from Chamberlinius hualienensis, amino acid sequence SEQ ID NO: 3, homodimer”?
Answer: activity in cyanohydrin synthesis direction relative to activity in cyanohydrin decomposition reaction [4]: 2.6 times; stability to pH (remaining activity) [5]: stability in broad pH range; pH of maximum activity ([5]; 20° C., pH 3 to 11, FIG. 5): 5.8; activity after heating at 60° C. ([5]; 60° C. for 1 hour or longer, FIG. 6): maintained; activity maintained after heating at 75° C. ([5]; 75° C. for 1 hour): 20%; optimum temperature ([5]; FIG. 6): 35 °; temperature at which high activity is exhibited ([5]; FIG. 6): ≤ 60 °C; activity at pH 4 as share of maximum activity value ([5]; pH 4, FIG. 5): about 10%

Question: For oxidized glutathione, which Remaining activity (R-ChHNL [1]; 0.5 mM, pH 7.0, 20° C., 60 minutes) is on record?
Answer: Its Remaining activity is 95%.

Question: Which “max S.A. (specific activity)” value (R-ChHNL [2]; [9]) does the source give for `Cc1cccc(C=O)c1` [3-methylbenzaldehyde] here?
Answer: Its value is 12657 U/mg.

Question: And the “relative S.A.” value (R-ChHNL [2]; [10])?
Answer: Its value is 170.3.

Question: With `OCCS` [2-mercaptoethanol] as the molecule, how does the Remaining activity (R-ChHNL [1]; [8]) read?
Answer: Its Remaining activity is 95%.

Question: With `N.N#CS` [ammonium thiocyanate] as the molecule, how does the “inhibition of S-HNL” value [6] read?
Answer: Its value is “strongly inhibits”.

Question: Which Remaining activity (R-ChHNL [1]; [7]) does the source give for `O=S(=O)([O-])[O-].[Zn+2]` [ZnSO4] here?
Answer: The Remaining activity was 100%.

Question: With `O=Cc1ccc2c(c1)OCO2` [piperonal] as the molecule, how does the Km (R-ChHNL [2]; [9]) read?
Answer: The Km was 5.6 mM.

Question: And the Vmax (R-ChHNL [2]; [9])?
Answer: The Vmax was 3006.6 µmol/min/mg.

Question: And the kcat (R-ChHNL [2]; [9])?
Answer: Its kcat is 1245.2 s⁻¹.

Question: And the “max S.A. (specific activity)” value (R-ChHNL [2]; [9])?
Answer: Its value is 2748 U/mg.

Question: What about the “relative S.A.” value (R-ChHNL [2]; [10]) of the same molecule?
Answer: The value was 37.0.

Question: With `Cc1ccc(C=O)c(C)c1` [2,4-dimethylbenzaldehyde] as the molecule, how does the Km (R-ChHNL [2]; [9]) read?
Answer: Its Km is 0.94 mM.

Question: What about the Vmax (R-ChHNL [2]; [9]) of the same molecule?
Answer: The Vmax was 632.2 µmol/min/mg.

Question: What about the kcat (R-ChHNL [2]; [9]) of the same molecule?
Answer: Its kcat is 261.8 s⁻¹.

Question: What about the “max S.A. (specific activity)” value (R-ChHNL [2]; [9]) of the same molecule?
Answer: The value was 654 U/mg.

Question: What about the “relative S.A.” value (R-ChHNL [2]; [10]) of the same molecule?
Answer: The value was 8.8.

Question: What does the source list for `O=C(O)CI` [iodoacetic acid]?
Answer: inhibition of the activity of R-ChHNL (R-ChHNL [1]): inhibit; remaining activity at 1000 µM (R-ChHNL [1]; pH 7): 52%; remaining activity at 10000 µM (R-ChHNL [1]; pH 7): 18%

Question: For `NN` [hydrazine], which Remaining activity (R-ChHNL [1]; [7]) is on record?
Answer: The Remaining activity was 100%.

Question: For `N[C@@H](CCC(=O)N[C@@H](CS)C(=O)NCC(=O)O)C(=O)O` [reduced glutathione], which Remaining activity (R-ChHNL [1]; pH 7) is on record?
Answer: Its Remaining activity is 93%.

Question: Which Km (R-ChHNL [2]; [9]) does the source give for `O=Cc1cccs1` [2-thiophenecarboxaldehyde] here?
Answer: The Km was 18.7 mM.

Question: What about the Vmax (R-ChHNL [2]; [9]) of the same molecule?
Answer: The Vmax was 3522 µmol/min/mg.

Question: And the kcat (R-ChHNL [2]; [9])?
Answer: Its kcat is 1459 s⁻¹.

Question: And the “max S.A. (specific activity)” value (R-ChHNL [2]; [9])?
Answer: The value was 2403 U/mg.

Question: And the “relative S.A.” value (R-ChHNL [2]; [10])?
Answer: Its value is 32.3.

Question: For `O=Cc1cccc2ccccc12` [1-naphthalenecarboxaldehyde], which “max S.A. (specific activity)” value (R-ChHNL [2]; [9]) is on record?
Answer: Its value is 326 U/mg.

Question: What about the “relative S.A.” value (R-ChHNL [2]; [10]) of the same molecule?
Answer: The value was 4.4.
